Experimental data published in paper PMC3806773, “Discovery of P1736, a Novel Antidiabetic Compound That Improves Peripheral Insulin Sensitivity in Mice Models” (PLoS ONE, 2013).
Entries after “also recorded” stand apart in the source; their conditions may differ. Where a name gives a salt, the structure may show the parent alone. Marks after values point to notes of the source that are not given here. One block for each molecule: values may come before it.

Tests used:
GLUT-4 = GLUT-4 translocation in insulin resistant 3T3 adipocytes (immunofluorescence); settings: 4 days, 200nM insulin stimulated
[1] = tested on: insulin resistant 3T3 adipocytes; test: Glucose uptake in dexamethasone-induced insulin resistant 3T3 adipocytes; assay type: cell-based; settings: for EC50: Adipocyte, dose response, insulin resistant adipocytes, read-out: EC50 of increase in glucose uptake
Description: Fully differentiated 3T3 adipocytes generated in 24-well plates were used after day 8 of differentiation. Insulin resistance was induced essentially as described before. Briefly, adipocytes were incubated with 100 nM dexamethasone for six consecutive days. […].
Glucose uptake was measured essentially according to the method of Gao et al using ^14C-labeled 2-deoxy glucose as the tracer. Activity in this assay is defined as a statistically significant increase in glucose uptake of minimum 50% compared to the uptake seen in cells exposed to vehicle. Effect of wortmannin on glucose uptake was studied according to the method of Hausdorff et al using 100 nM wortmannin.

db/db mice [2] = test: Antidiabetic activity in db/db mice, once daily oral dosing; assay type: in vivo; settings: for decrease in plasma triglyceride / reduction in plasma glucose / plasma adiponectin levels: 150 mg/kg oral once daily; for plasma adiponectin levels: vehicle 7.5 ± 0.44; for Liver weight / Plasma ALT / Plasma AST: 150mg/kg; for Liver weight: vehicle 1.8 + 0.10; for Plasma ALT: vehicle 91.2 + 12.7; for Plasma AST: vehicle 100.6 + 8.8; for reduction of high initial plasma glucose: db/db mice with high initial plasma glucose, 150 mg/kg once daily, 10 days
Description: After two weeks of acclimatization, db/db mice were deprived of food for 4h. Their weights were measured and blood was obtained by retro-orbital puncture for the determination of plasma glucose. The animals were randomized into groups (7-10/group) based on body weight and plasma glucose levels. Animals were dosed orally once a day, between 9.00 -10.00am for 15 consecutive days, with either P1736 (150mg/kg) or metformin (150mg/kg) or 0.5% carboxy methyl cellulose (CMC) vehicle. The dose of 150 mg/kg was chosen for once-a-day dosing of P1736, on the basis of its pharmacokinetic profile and to maintain high plasma concentrations. Body weight was measured daily. On days 10 and 15, blood samples were collected at the end of the 4h fasting after drug administration. Plasma samples were analysed for biochemical parameters, by enzymatic methods using autoanalyser 902(Hitachi instruments, Japan). Plasma adiponectin levels were measured using mouse ELISA kits (Millipore Inc. USA).

ob/ob mice [3] = test: Antidiabetic activity in ob/ob mice; assay type: in vivo; settings: 10 days
[4] = tested on: soleus muscles of ob/ob mice; test: Ex vivo muscle glucose uptake in ob/ob mice; settings: for Glucose Uptake in soleus muscle (% Increase): ex vivo after chronic administration
Description: (§1) On day 9, food was withheld for 4 h and blood was collected for the analysis of plasma chemistry and plasma insulin levels. On days 12 and 13, 3-4 animals from each group were sacrificed and soleus muscles were excised. Radiolabelled glucose uptake was measured in the isolated soleus muscles by the method of Zierath and colleagues. Plasma Insulin was estimated using mouse ELISA kit (Linco, USA)

db/db mice [5] = test: Dose response experiment in db/db mice, twice daily dosing; assay type: in vivo; settings: for weight gain / decrease in plasma glucose / decrease in plasma triglyceride: 5 mg/kg twice daily; for weight gain: 15 days; for decrease in plasma glucose / decrease in plasma triglyceride: day 15
Description: The doses were given during 8.00-9.00 am and 5.00-6.00 pm daily. On day 15, blood was collected and plasma samples were analysed as described above.

human PPARγ receptor = target: T1, human PPARγ receptor (Homo sapiens, UniProt P37231); test: PPARγ transactivation luciferase reporter gene assay in HEK-293 cells; settings: upto 10 μM
T1 sequence (P37231 238-503 limits assumed): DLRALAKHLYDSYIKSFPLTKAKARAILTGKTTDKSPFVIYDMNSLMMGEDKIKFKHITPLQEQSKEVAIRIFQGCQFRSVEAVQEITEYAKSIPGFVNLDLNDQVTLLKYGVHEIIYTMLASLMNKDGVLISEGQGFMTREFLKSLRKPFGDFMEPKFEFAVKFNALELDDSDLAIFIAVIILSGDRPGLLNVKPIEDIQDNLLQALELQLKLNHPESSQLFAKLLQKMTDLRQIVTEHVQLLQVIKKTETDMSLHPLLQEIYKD

Wistar rats = test: Plasma volume in rats (Evans Blue Dye method)
[6] = tested on: adenosine mono phosphate activated kinase (AMPK); test: AMPK activity (MDS Pharma); assay type: biochemical
Description: (§2) Transactivation activity against human PPARγ and PPARα receptors was determined using luciferase reporter gene assays in the Laboratory of CloneGen Biotechnology, Michigan, USA. Activities of protein tyrosine phosphatase-1b (PTP-1B) and adenosine mono phosphate activated kinase (AMPK) were evaluated at MDS Pharma, Korea. Evaluation of activity against human 11-Hydroxysteroid dehydrogenase-1 was outsourced to University of Edinburg, UK which used a cell based method.

[7] = target: T2, human 11<beta>-Hydroxysteroid dehydrogenase-1 (Homo sapiens, UniProt P28845); test: 11beta-HSD1 cell based inhibition assay; settings: concentration not given
T2 construct: University of Edinburgh, UK (outsourced)
Description: as §2

ob/ob mice [8] = test: Antidiabetic activity in ob/ob mice; assay type: in vivo; settings: for Liver weight: vehicle 4.3 ± 0.2; for Plasma AST: vehicle 468 ± 38; for Plasma ALT: vehicle 740 ± 71
Description: After one week of acclimatization, ob/ob mice (8/group) were dosed orally, twice daily for 10 consecutive days, with either P1736 (100 or 200 mg/kg) or vehicle. Rest of the procedure is exactly the same as that used for db/db mice and as described above.
as §1

3T3-L1 cells = test: Adipogenesis screen; assay type: cell-based
Description: Adipogenesis screening was carried out essentially according to the method of Choi et al. […] Compounds that caused increase in adipogenesis by more than 5-fold of vehicle (0.1% DMSO) were considered positive and were selected for further screening.

[9] = target: T3, protein tyrosine phosphatase-1b (PTP-1B) (Homo sapiens, UniProt P18031); test: PTP-1B activity (MDS Pharma); assay type: biochemical
T3 construct: MDS Pharma, Korea (contract laboratory)
T3 sequence (P18031 1-435): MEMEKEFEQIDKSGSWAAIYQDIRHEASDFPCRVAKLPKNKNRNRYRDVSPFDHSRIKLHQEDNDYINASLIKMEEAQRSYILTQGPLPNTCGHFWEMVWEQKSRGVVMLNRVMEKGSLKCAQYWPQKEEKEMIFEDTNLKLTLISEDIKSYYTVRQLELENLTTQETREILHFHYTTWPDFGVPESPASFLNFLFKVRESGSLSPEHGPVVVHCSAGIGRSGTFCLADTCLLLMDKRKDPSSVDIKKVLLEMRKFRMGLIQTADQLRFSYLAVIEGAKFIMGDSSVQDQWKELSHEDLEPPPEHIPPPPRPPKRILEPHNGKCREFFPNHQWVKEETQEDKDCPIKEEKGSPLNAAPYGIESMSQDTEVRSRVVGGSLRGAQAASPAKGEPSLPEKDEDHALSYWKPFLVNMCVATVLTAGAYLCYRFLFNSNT
Description: as §2

[10] = tested on: panel of membrane receptors, ion channels and enzymes; test: Screen against a panel of membrane receptors, ion channels and enzymes
human PPARα receptor = target: T4, human PPARα receptor (Homo sapiens, UniProt Q07869); test: PPARα transactivation luciferase reporter gene assay in HEK-293 cells; settings: upto 10 μM
T4 sequence (Q07869 239-466 limits assumed): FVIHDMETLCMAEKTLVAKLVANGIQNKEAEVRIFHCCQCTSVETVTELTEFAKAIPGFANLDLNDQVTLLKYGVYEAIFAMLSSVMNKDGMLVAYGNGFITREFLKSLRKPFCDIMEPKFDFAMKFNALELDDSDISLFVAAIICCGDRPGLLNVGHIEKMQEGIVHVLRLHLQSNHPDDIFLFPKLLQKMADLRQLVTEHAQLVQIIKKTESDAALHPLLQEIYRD

T2 sequence (P28845 whole entry): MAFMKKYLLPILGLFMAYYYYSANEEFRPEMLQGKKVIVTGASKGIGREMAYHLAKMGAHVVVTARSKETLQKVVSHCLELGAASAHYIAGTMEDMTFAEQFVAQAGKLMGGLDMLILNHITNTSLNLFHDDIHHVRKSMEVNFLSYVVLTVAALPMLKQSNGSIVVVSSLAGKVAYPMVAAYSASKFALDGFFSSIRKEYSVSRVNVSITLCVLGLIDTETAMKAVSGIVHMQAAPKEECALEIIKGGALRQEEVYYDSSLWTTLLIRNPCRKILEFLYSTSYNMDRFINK

Liver weight (db/db mice [2]): 2.1 + 0.08 gm
SMILES: CN(C)C(=N)N=C(N)N [Metformin, Metformin hydrochloride, reference compound]
GLUT-4 translocation to plasma membrane (GLUT-4; 1 mM): inactive
effect on glucose uptake ([1]; 1.0 mM, 4 days exposure): no effect
decrease in plasma triglyceride (db/db mice [2]; day 10): 18%
reduction in plasma glucose (db/db mice [2]; day 10): 24%
decrease in plasma triglyceride (db/db mice [2]; day 15): 31%
reduction in plasma glucose (db/db mice [2]; day 15): 25%
plasma adiponectin levels (db/db mice [2]): 8.9 ± 0.64 µg/mL
Plasma ALT (db/db mice [2]): 75.3 + 6.4 U/L
Plasma AST (db/db mice [2]): 101.7 + 8.4 U/L
reduction of high initial plasma glucose (db/db mice [2]): 25%
lowering of plasma insulin levels (ob/ob mice [3]; 150 mg/kg): 43%
Plasma Glucose (% Reduction) ([4]; 150.0 mg/kg): 37%
Glucose Uptake in soleus muscle (% Increase) ([4]; 150.0 mg/kg): 38* %
Glucose Uptake in soleus muscle (% Increase) ([4]; 150.0 mg/kg, listed as metformin): 38%

PPARγ transactivation (human PPARγ receptor): no significant transactivation ability
normalized plasma volume (Wistar rats; female rats, 100 mg/kg once daily 28 days, control 35.56 ± 1.46): 30.91 ± 0.03 mL/kg
normalized plasma volume (Wistar rats; female rats, 300 mg/kg once daily 28 days, control 35.56 ± 1.46): 33.02 ± 0.28 mL/kg
normalized plasma volume (Wistar rats; male rats, 100 mg/kg once daily 28 days, control 33.44 ± 1.52): 31.55 ± 0.27 mL/kg
normalized plasma volume (Wistar rats; male rats, 300 mg/kg once daily 28 days, control 33.44 ± 1.52): 29.15 ± 0.02 mL/kg
activity against AMPK [6]: no significant activity
inhibitory activity towards 11<beta>-Hydroxysteroid dehydrogenase-1 [7]: 50%
Liver weight (ob/ob mice [8]; 100mg/kg): 4.6 ± 0.2 gm
Liver weight (ob/ob mice [8]; 200mg/kg): 4.4 ± 0.3 gm
activity against PTP-1B [9]: no significant activity
Liver weight (db/db mice [2]): 2.1+ 0.10 gm
activity against panel targets [10]: no significant activity
PPARα transactivation (human PPARα receptor): did not activate
SMILES: O=S(=O)(Nc1cnc(Oc2cc3ccccc3cn2)c(Cl)c1)c1ccc(Cl)cc1Cl [P1736]
effect on plasma glucose and triglyceride levels over the dose range (db/db mice [5]; 5 mg/kg to 200 mg/kg twice daily, EC50 could not be established): all the doses reduced plasma glucose and triglyceride levels
weight gain (db/db mice [5]): did not exhibit any tendency towards weight gain
decrease in plasma glucose (db/db mice [5]): 40%
decrease in plasma triglyceride (db/db mice [5]): 32%
GLUT-4 translocation to plasma membrane (GLUT-4; 10 µM): induced translocation; also recorded: complete translocation
effect on plasma volume or body weights (Wistar rats; oral, 28 days, male and female normal Wistar rats): did not cause significant increase
reduction in plasma glucose (ob/ob mice [8]; 100 mg/kg twice daily, 10 days): 30%
lowering of plasma insulin levels (ob/ob mice [8]; 100 mg/kg, 10 days): 50%
Plasma AST (ob/ob mice [8]; 100mg/kg): 547 ± 50 U/L
Plasma ALT (ob/ob mice [8]; 100mg/kg): 857 ± 72 U/L
reduction in plasma glucose (ob/ob mice [8]; 200 mg/kg twice daily, 10 days): 32%
Plasma AST (ob/ob mice [8]; 200mg/kg): 470 ± 57 U/L
Plasma ALT (ob/ob mice [8]; 200mg/kg): 668 ± 92 U/L
decrease in glucose (ob/ob mice [8]; ob/ob mice, dose not stated (abstract)): 30-35%
changes in body weight (ob/ob mice [8]; upto 200 mg/kg twice daily): did not induce adverse changes
stimulation of glucose uptake after pretreatment with wortmannin ([1]; 10 µM compound, 100 nM wortmannin for 30 minutes): abolished
increase in glucose uptake compared to insulin resistant vehicle ([1]; 10 µM, 4 days exposure): more than 2 fold
EC50 [1]: 400 nM
result in adipogenesis screen (3T3-L1 cells; 43 µM, positive = increase in adipogenesis by more than 5-fold of vehicle): positive
decrease in plasma triglyceride (db/db mice [2]; day 10): 30%
reduction in plasma glucose (db/db mice [2]; day 10): 35%
decrease in plasma triglyceride (db/db mice [2]; day 15): 38%
reduction in plasma glucose (db/db mice [2]; day 15): 35%
plasma adiponectin levels (db/db mice [2]): 12.4 ± 0.33 µg/mL
effect on body weight (db/db mice [2]; 150 mg/kg, 15 days): did not affect body weight
Plasma ALT (db/db mice [2]): 99.0 + 8.5 U/L
Plasma AST (db/db mice [2]): 84.6 + 2.6 U/L
reduction of high initial plasma glucose (db/db mice [2]): 23%
lowering of plasma insulin levels (ob/ob mice [3]; 5 mg/kg): 40%
Plasma Glucose (% Reduction) ([4]; 1.0 mg/kg): 34%
Glucose Uptake in soleus muscle (% Increase) ([4]; 1.0 mg/kg): 70%
Glucose Uptake in soleus muscle (% Increase) ([4]; 1.0 mg/kg, listed as P1736-05): 70* %
Plasma Glucose (% Reduction) ([4]; 5.0 mg/kg): 35%
Glucose Uptake in soleus muscle (% Increase) ([4]; 5.0 mg/kg): 67%
Glucose Uptake in soleus muscle (% Increase) ([4]; 5.0 mg/kg, listed as P1736-05): 67* %

weight gain (db/db mice [5]): 13%
SMILES: CN(CCOc1ccc(CC2SC(=O)NC2=O)cc1)c1ccccn1 (stereo not drawn) [Rosiglitazone, rosiglitazone maleate, reference compound]
decrease in plasma glucose (db/db mice [5]): 60%
decrease in plasma triglyceride (db/db mice [5]): 40%
decrease in plasma glucose (db/db mice [5]; listed as rosiglitazone): about 60%
GLUT-4 translocation to plasma membrane (GLUT-4; 0.1 µM): caused GLUT-4 translocation
EC50 [1]: 20 nM
effect on glucose uptake ([1]; rosiglitazone 0.1 µM): potentiated glucose uptake and re-sensitized the cells
adipogenesis (3T3-L1 cells; 1.0 µM, positive control, vehicle induced 7-10%): > 90%
lowering of plasma insulin levels (ob/ob mice [3]; 5 mg/kg): 80%
Plasma Glucose (% Reduction) ([4]; 5.0 mg/kg): 49%
Glucose Uptake in soleus muscle (% Increase) ([4]; 5.0 mg/kg): 147** %
Glucose Uptake in soleus muscle (% Increase) ([4]; 5.0 mg/kg, listed as rosiglitazone): 147%
